Assays:
COX-1 expression = assay: COX-1 mRNA abundance in ipsilateral hippocampus after MCA-O; format: in vivo, mouse; details: 1 h MCA-O, 2 h reperfusion, NPD1 0.16 μg/ml infused
Description: COX-2 RNA abundance in hippocampus and HN cells. Abundance of human-specific COX-1 and COX-2 RNA message was assayed using RT-PCR as described in Bazan, N. G., and Lukiw, W. J. (2002) J. Biol. Chem. 277, 30359-30367.
To determine COX-1 and COX-2 expression, mRNA abundance in the ipsilateral hippocampus was measured. […] A 3-fold increase of COX-2 was seen due to MCA-O reperfusion (FIG. 7C). The infusion of the precursor DHA as well as its product 10,17S-docosatriene (NPD1) inhibited COX-2 expression by 14% and 52%, respectively.

COX-2 gene expression = assay: HGU133 GeneChip DNA array in HN cells: COX-2; format: cell-based, human; details: Aβ42 25 μM, DHA 50 nM or NPD1 50 nM, 18 h, nsc = no significant change
Bfl-1(A1) protein = assay: Western analysis of Bfl-1(A1) in HN cells; format: cell-based, human; details: 50 nM, p<0.05
Description: Western Analysis. Total protein was extracted, and 25 μg of protein was analyzed by Western blots using human Bcl-2, Bfl-1 (A1) and actin antibodies. […] Human specific anti-Bfl-1(A1)[Cat. No. sc-8351] was obtained from Santa Cruz Biotechnology (Santa Cruz, Calif.). For Western analysis, signal-intensity data were gathered by phosphorimaging onto molecular imaging screens (FUJIFILM) for 3-36 h using a Typhoon Molecular Imager system (Amersham Biosciences) as described in Bazan and Lukiw, 2002.
To confirm the above changes in Bcl-2 and Bfl-1(A1), Western analysis was performed using anti-Bcl-2, anti-Bfl-1(A1), and anti-actin primary antibodies (B3170 Sigma Life Science, sc-8351 Santa Cruz, and A2103 Sigma, respectively). The results of the Western analysis confirm up-regulation of Bcl-2 and Bfl-1(A1) anti-apoptotic proteins over actin controls in DHA- and NPD1-treated cells.

[1] = system: IL-1β-induced NF-κB activation; assay: EMSA of NF-κB in IL-1β-exposed human neural progenitor cells; format: cell-based; details: HN progenitor cells, IL-1β 10 ng/ml 3 h
Description: Human neural (HN) progenitor cells in primary culture. HN cells were grown to ˜70% confluence (˜50,000 cells per 3.5-cm diameter well) in 6-well COSTAR plates at 37° C., 5% CO2/20% O2/75% N2 in humidified air at 1 atm (normoxic conditions) in NPMM medium (Clonetics CC-4241) supplemented with hFGF, NSF-1, hEGF, GA-1000, as described by the manufacturer (Clonetics, Walkersville, Md.). HN cells tested negative for HIV-1, hepatitis B and C, mycoplasma, bacteria, yeast, and fungi, and positive for the glial and neuronal markers GFAP, MAP2, and β-tubulin III (Clonetics). […]
(§1) Electrophoretic mobility-shift assay (EMSA) of human AP1, HIF-1α, NF-κBp50/p65, and STAT-1α. Nuclear protein extracts (NPXTs) were prepared from one to three 3.5 cm-diameter wells of HN cells and quantitated. NPXTs (5 μg) derived from HN cells were incubated with[γ-^32P]-ATP (˜3000 Ci/mmol)-end-labeled AP1, HIF-1α, NF-κκBp50/p65, or STAT-1α consensus and mutant oligonucleotides in 5-μl volumes, reacted for 30 min on ice, analyzed on 5% or 10% acrylamide/90 mM Tris-borate pH 8.4, 1 mM EDTA (TBE) gels, dried onto 2-mm Whatman filter paper at 80° C. for 2 h, and phosphorimaged using a Typhoon Variable Mode Imager (Amersham Pharmacia Biotech, Piscataway, N.J. ).

Bcl-2 = assay: Western blot of Bcl-2 in ARPE-19 cells under TNFα/H2O2; format: cell-based, human; details: 50 nM; TNFα plus H2O2 (400 or 800 μM) 6 h
Description: Analysis of pro- and anti-apoptotic proteins in ARPE-19 cells: Bcl-2 family proteins were analyzed by Western-blot analysis. In brief, 20-μg equivalents of each cell extract were subjected to electrophoresis on a 8-16% gel (Promega, Madison, Wis.) at 125 volts for 2 h. The proteins were transferred to nitrocellulose membrane at 30 volts for 1 h at 4° C. The membranes were subjected to treatment with primary antibodies of Bcl-2, Bcl-xL, Bax, and Bad for 1 h at room temperature, and probed 30 min with secondary antibody, goat anti-rabbit Ig:HRPO and HRP-conjugated anti-biotin antibody. (BD Sciences—Pharminogen, San Diego, Calif.) Then proteins were evaluated using an ECL kit. (Amersham Biosciences Corp., Piscataway, N.J.)
Using the same TNFα/H2O2 concentrations, Bcl-2 proteins were assayed. Cells were grown for 72 h after plating, placed in serum-free medium for 1 h, then incubated with TNFα/H2O2 for 6 h. Protein expression and Western-blot analysis were performed as described in Example 13. Data in FIGS. 14A, 14B, 14C and 14D represent four independent experiments with triplicate samples in each case. Anti-apoptotic protein Bcl-xL was enhanced in ARPE-19 cells by TNFα/H2O2 (800 μM) (FIG. 14B, first bar), whereas Bcl-2 was not changed (FIG. 14A, first bar).

[2] = system: NF-κB-DNA binding activity; assay: EMSA of NF-κB in hippocampus after MCA-O; format: in vivo, mouse; details: ipsilateral hippocampus; 1 h MCA-O, 2 h reperfusion; infused into third ventricle 3 h at 0.25 μl/h (NPD1 0.16 μg/ml)
Description: as §1
FIGS. 7A, 7B, and 7C show mouse hippocampus after 1 h MCA-O was followed by 2 h reperfusion, where either vehicle, DHA, or 10,17S-docosatriene (NPD1) (0.16 μg/ml) was infused into the third ventricle for 3 h at 0.25 μl/h. […] NF-κB was increased over two fold in the ipsilateral hippocampus after MCA-O, and the infusion of either DHA or 10,17S-docosatriene (NPD1) inhibited ischemia-reperfusion-induced NF-κB activation by 28% and 48%, respectively (FIG. 7A).

CEX-1 gene expression = assay: HGU133 GeneChip DNA array in HN cells: CEX-1; format: cell-based, human; details: Aβ42 25 μM, DHA 50 nM or NPD1 50 nM, 18 h, nsc = no significant change

Structure (SMILES): CC/C=C\C[C@H](O)\C=C/C=C/C=C/[C@H](O)C/C=C\C/C=C\CCC(=O)O [NPD1, 10,17S-docosatriene]
- decrease of COX-1 expression (mRNA) (COX-1 expression): 19%
- COX-2 gene expression, fold change over untreated controls (COX-2 gene expression): nsc
- Bfl-1(A1) protein increase over controls, normalized with actin (Bfl-1(A1) protein): 5.4 fold
- concentration at which inhibitory effect on NF-κB is seen (as low as) [1]: 0.3 nM
- effect on IL-1β-induced NF-κB activation ([1]; concentration-dependent): down-regulated
- effect on Bcl-2 expression (Bcl-2): increased expression
- inhibition of ischemia-reperfusion-induced NF-κB activation [2]: 48%
- CEX-1 gene expression, fold change over untreated controls (CEX-1 gene expression): nsc

Reference: patent US20050075398A1, “Neuroprotectin D1 protects against cellular apoptosis, stroke damage, alzheimer's disease and retinal diseases” (priority 2003, published 2005)
